Results taken from PMC10860144, “Exploring the Dispersion and Electrostatic Components in Arene–Arene Interactions between Ligands and G4 DNA to Develop G4-Ligands” (Journal of Medicinal Chemistry, 2024).

What was measured:
c-MYC Pu22 G4 DNA [1] = assay: FRET melting assay, c-MYC Pu22 G4 DNA; format: binding, human; settings: c-MYC Pu22 G4 DNA; 5-40 equiv
Excerpt: The synthesized compounds (2–11) were first analyzed using a Förster resonance energy transfer (FRET) assay (Figure 2A). This assay measures the compounds’ ability to affect the thermal stability of fluorescently labeled DNA, in this case, the c-MYC Pu22 G4 DNA (Table S1). […] The addition of one methyl group to the quinazoline core (3) provides almost twice as strong thermal stability compared to 2. The addition of a second methyl group (4) further increased stabilization, albeit modestly (by 0.5 °C). This slight increase between 3 and 4 could stem from the suboptimal positioning of the added methyl substituent in relation to the guanines on the G4 surface, compared to other positions on the quinazoline ring. […] Furthermore, the methyl-substituted (4) and the methoxy-substituted (6) display a similar G4 stabilization despite the strong electrostatic character of the methoxy substituent compared to the neutral methyl group, which further supports that these interactions are dispersion-driven. This conclusion is further supported by the fact that the replacement of the methoxy group in 6 with chlorine in 7 results in a very similar stabilization as 3, 4, and 6.
Synthetic labeled oligonucleotides for the FRET study were purchased from Eurofins Genomics. Stock solutions were prepared in MQ-water at 100 μM concentration. The sequences used are listed in Supporting Information Table S1. All the oligonucleotides except Pu22 were prefolded in 10 mM lithium cacodylate buffer (pH 7.4), with 10 mM KCl and 90 mM LiCl by heating for 10 min at 95 °C and then cooling in fridge for at least 1 h. Pu22 was folded in 10 mM lithium cacodylate buffer (pH 7.4), with 2 mM KCl and 98 mM LiCl.
The FRET occurs between two dyes (5′-FAM as donor and 3′-TAMRA as acceptor) linked at both extremities of a DNA oligonucleotide. When the oligonucleotides are folded into G4 structures, the donor and acceptor are in proximity, which results in an energy transfer from the donor to the acceptor. This process can be detected by a reduction in the fluorescence emission of the donor. Fluorescence emission of the donor is recovered when the temperature increment triggers the thermal denaturation of the G4 structure. The experiments were performed in a Bio-Rad CFX96 real-time PCR device at temperatures from 10 to 95 °C at 1.5 °C/m heating rate using a 492 nm excitation wavelength and a 516 nm detection wavelength in 96-well plates. […] The stabilization (ΔTm) is calculated from comparison of Tm of the fluorescently labeled oligonucleotide in the presence or absence of the ligand. […]
The fluorescence resonance energy transfer (FRET) occurs between two dyes (5'-FAM as donor and 3'- TAMRA as acceptor) linked at both extremities of a DNA oligonucleotide. […]

[2] = Intrinsic clearance in human microsomes; format: in vitro ADME; settings: read-out: Human mics: intrinsic clearance in human microsomes
Protocol: (§1) All compounds (2–11, 25–29) were screened for their logD and solubility at pH 7.4 and for their intrinsic clearance in rat hepatocytes and human microsomes (Table S2). […] Replacing the basic amine side chain to a methyl substituent in the quinazolines (25–29) still retained good solubility (134 to over 1000 μM) but increased clearance in both rat hepatocytes and human microsomes. The logD was low for compounds with a basic amine side chain (2–11) and increased slightly when the amine was replaced with a methyl (25–29). As expected, additional substituents also affected the logD with the chloro-substituents increasing logD the most.
(§2) a Intrinsic clearance in rat hepatocytes ((μL/min)/10^6 cells).b Intrinsic clearance in human microsomes (μL/min/mg). […]

[3] = Intrinsic clearance in rat hepatocytes; format: in vitro ADME
Protocol: as §1, §2

logD at pH 7.4 = format: physicochemical
Protocol: (§3) Physicochemical properties
(§4) The Physicochemical profiling (LogD, Solubility, Caco-2 cell permeability) was performed as previously
(§5) described.8 Cell viability was performed as described below.
(§6) Table S2. Pharmacokinetic Properties
(§7) Compound Structure logD, Solubility, Rat hepsa Human mics b

Solubility at pH 7.4 = format: physicochemical
Protocol: as §3, §4, §5, §6, §7

Pu24T c-MYC G4 structure = assay: Kd for binding to the Pu24T c-MYC G4 structure (supplementary CSV); parameters: species or system human
Protocol: (§8) 5′-Cy5 labeled G4 DNAs for this study were purchased from Eurofins Genomics. Stock solutions were prepared in water at 100 μM concentration. The sequences used are listed in Supporting Information Table S1. The G4 DNA sequences were folded in KCl buffer (10 mM phosphate, 100 mM KCl, pH 7.4) by heating at 95 °C for 5 min and then cooling to room temperature. All the experiments were performed in 10 mM phosphate pH 7.4, 100 mM KCl, and 0.05% Tween20. The labeled DNA concentration is held constant at 25 nM, and ligand concentration is varied depending on ligands Kd (16 1:3 dilutions). The samples were loaded into standard MST graded glass capillaries and initial fluorescence intensity of the capillary was measured using Monolith NT.115 (Nano Temper, Germany) with 20% LED power. The change in fluorescence with ligand’s concentrations were plotted in Excel and fitted through nonlinear equation to obtain the binding constants.
The Supporting Information is available free of charge at https://pubs.acs.org/doi/10.1021/acs.jmedchem.3c02127. • Experimental procedures and data; assay data, computational results, and all cell data; NMR (^1H and ^13C) spectra for all compounds (with the exception of a few intermediates); and HPLC UV traces for the final compounds (PDF) • Molecular formula strings and Kd values for binding to the Pu24T c-MYC G4 structure (CSV)

c-MYC Pu22 G4 DNA [4] = assay: Microscale thermophoresis (MST), c-MYC Pu22 G4 DNA; format: binding, human; settings: Cy5-labeled c-MYC Pu22 G4 DNA 25 nM; pH 7.4, 100 mM KCl; read-out: apparent Kd (MST)
Protocol: To evaluate the apparent binding affinities (Kd) for the compound series, we next used microscale thermophoresis (MST) with fluorescently labeled c-MYC Pu22 G4 DNA (Table S1). Overall, the measured MST binding results for compounds 2–11 corresponded well with the results from the FRET assay (Figures 2B and S3).
as §8, with “constants. […]” for “constants.”
Microscale Thermophoresis (MST)
5'- Cy5 labelled G4 DNAs for this study were purchased from Eurofins Genomics. Stock solutions were prepared in water at […] concentration. The sequences used are listed in supplementary Table S1. The G4 DNA sequences were folded in KCl buffer (10 mM phosphate, 100 mM KCl, pH 7.4) by heating at 95 °C for 5 min and then cooling to room temperature. All the experiments were performed in 10 mM phosphate pH 7.4, 100 mM KCl, 0.05% Tween20. The labelled DNA concentration is held constant at 25 nM and ligand concentration is varied depending on ligands Kd (sixteen 1:3 dilutions). The samples were loaded into standard MST graded glass capillaries and initial fluorescence intensity of the capillary were measured using Monolith NT.115 (Nano Temper, Germany) with 20% LED power. The change in fluorescence with ligand's concentrations were plotted in Excel and fitted through non-linear equation to obtain the binding constants.
(1 picture or pasted object on this page, not shown here)

For Cc1cc(NCCCN(C)C)nc(Nc2cnc3ccccc3n2)n1 [Compound 8, N4-(3-(Dimethylamino)propyl)-6-methyl-N2-(quinoxalin-2-yl)pyrimidine-2,4-diamine], the “ability to stabilize the G4 structure (in words)” value (c-MYC Pu22 G4 DNA [1]) was “almost no ability to stabilize the G4 structure”, the microsomal CLint [2] was 8 µL/min/mg and the “Rat heps: intrinsic clearance in rat hepatocytes” value [3] was 38 (μL/min)/106 cells. The logD (logD at pH 7.4) was 1.4, the solubility (Solubility at pH 7.4) was > 1000 µM and the Kd (Pu24T c-MYC G4 structure) was > 10 µM. For the same compound, the Kd (c-MYC Pu22 G4 DNA [4]) was > 10 µM.
